“And” between values parts separate entries of the source, which are not always exact repeats. Equal values may be shown once.
Assay: Pharmacokinetic study for PTG-630 (IV and PO): plasma, whole blood, tissues, urine
Type: in vivo, Sprague Dawley rats
Settings: for PTG-4997 (metabolite) concentration: Table 2, for PTG-4997 (metabolite) after PTG-630 PO 100 mg/kg
Protocol: The samples were analyzed in two batches with standards and QCs prepared on rat plasma and rat urine. Analyst® 1.6 (SCIEX) software was used for statistical analysis of bioanalytical data. […] Dose samples collected at 0.083 h-6 h postdose were diluted 4 times with SD rat plasma prior to plating. Twenty-four (24) hours plasma samples were assayed without dilution. […] Two sciatic nerve samples were excluded from analysis, due to the insufficient sample size. […] The 12 non-cannulated animals were arbitrarily assigned to groups upon arrival and housed together throughout the experiment. The animals were acclimated to their designated housing for at least 24 hours before the first day of dosing. […] Blood samples were collected via cannula from IV dosed rats or by cardiac stick from PO dosed rats at the specified time points for sampling pharmacokinetics. Blood was collected into K2EDTA tubes. Tubes were mixed gently after blood collection, chilled and centrifuged at 3000 rpm, 4° C. within 30 minutes upon collection. The samples were centrifuged at 4° C. and the resultant plasma separated. […] Urine from Group 1 was collected via polycarbonate tubes from rats placed in drug metabolism cages. Urine was maintained and room temperature through the collection period.

Question: With `Cc1ncc(CO)c(-c2ncc[nH]2)c1O` [PTG-4997] as the compound, how does the “PTG-4997 (metabolite) concentration” value (muscle, 1 h postdose, Mean) read?
Answer: <BLQ

Question: What about the “PTG-4997 (metabolite) concentration” value (muscle, 1 h postdose, individual animals) of the same compound?
Answer: <BLQ

Question: What about the “PTG-4997 (metabolite) concentration” value (muscle, 2 h postdose, Mean) of the same compound?
Answer: <BLQ

Question: And the “PTG-4997 (metabolite) concentration” value (muscle, 2 h postdose, individual animals)?
Answer: <BLQ

Question: What about the “PTG-4997 (metabolite) concentration” value (muscle, 4 h postdose, Mean) of the same compound?
Answer: 54 ng/mL

Question: And the “PTG-4997 (metabolite) concentration” value (muscle, 4 h postdose, individual animals, 100 mg/kg)?
Answer: 108 ng/mL and <BLQ

Question: And the “PTG-4997 (metabolite) concentration” value (muscle, 6 h postdose, Mean)?
Answer: 127.5 ng/mL

Question: What about the “PTG-4997 (metabolite) concentration” value (muscle, 6 h postdose, individual animals, 100 mg/kg) of the same compound?
Answer: 108 ng/mL and 147 ng/mL

Question: What about the “PTG-4997 (metabolite) concentration” value (muscle, 24 h postdose, Mean) of the same compound?
Answer: <BLQ

Question: What about the “PTG-4997 (metabolite) concentration” value (muscle, 24 h postdose, individual animals) of the same compound?
Answer: <BLQ

Question: What about the “PTG-4997 (metabolite) concentration” value (plasma, 0.5 h postdose, Mean) of the same compound?
Answer: <BLQ

Question: What about the “PTG-4997 (metabolite) concentration” value (plasma, 0.5 h postdose, individual animals) of the same compound?
Answer: <BLQ

Question: And the “PTG-4997 (metabolite) concentration” value (plasma, 1 h postdose, Mean)?
Answer: <BLQ

Question: And the “PTG-4997 (metabolite) concentration” value (plasma, 1 h postdose, individual animals)?
Answer: <BLQ

Question: And the “PTG-4997 (metabolite) concentration” value (plasma, 2 h postdose, Mean)?
Answer: <BLQ

Question: And the “PTG-4997 (metabolite) concentration” value (plasma, 2 h postdose, individual animals)?
Answer: <BLQ

Question: And the “PTG-4997 (metabolite) concentration” value (plasma, 4 h postdose, Mean)?
Answer: <BLQ

Question: What about the “PTG-4997 (metabolite) concentration” value (plasma, 4 h postdose, individual animals) of the same compound?
Answer: <BLQ

Question: And the “PTG-4997 (metabolite) concentration” value (plasma, 6 h postdose, Mean)?
Answer: <BLQ

Question: What about the “PTG-4997 (metabolite) concentration” value (plasma, 6 h postdose, individual animals) of the same compound?
Answer: <BLQ

Question: And the “PTG-4997 (metabolite) concentration” value (plasma, 24 h postdose, Mean)?
Answer: <BLQ

Question: And the “PTG-4997 (metabolite) concentration” value (plasma, 24 h postdose, individual animals)?
Answer: <BLQ

Question: And the “PTG-4997 (metabolite) concentration” value (sciatic nerve, 0.5 h postdose, Mean)?
Answer: <BLQ

Question: And the “PTG-4997 (metabolite) concentration” value (sciatic nerve, 0.5 h postdose, individual animals)?
Answer: <BLQ

Question: What about the “PTG-4997 (metabolite) concentration” value (sciatic nerve, 1 h postdose, Mean) of the same compound?
Answer: <BLQ

Question: And the “PTG-4997 (metabolite) concentration” value (sciatic nerve, 1 h postdose, individual animals)?
Answer: <BLQ

Question: What about the “PTG-4997 (metabolite) concentration” value (sciatic nerve, 2 h postdose, Mean) of the same compound?
Answer: <BLQ

Question: And the “PTG-4997 (metabolite) concentration” value (sciatic nerve, 2 h postdose, individual animals)?
Answer: <BLQ

Question: What about the “PTG-4997 (metabolite) concentration” value (sciatic nerve, 4 h postdose, Mean) of the same compound?
Answer: <BLQ

Question: What about the “PTG-4997 (metabolite) concentration” value (sciatic nerve, 4 h postdose, individual animals) of the same compound?
Answer: <BLQ

Question: What about the “PTG-4997 (metabolite) concentration” value (sciatic nerve, 6 h postdose, Mean) of the same compound?
Answer: <BLQ

Question: What about the “PTG-4997 (metabolite) concentration” value (sciatic nerve, 6 h postdose, individual animals) of the same compound?
Answer: <BLQ

Question: And the “PTG-4997 (metabolite) concentration” value (sciatic nerve, 24 h postdose, Mean)?
Answer: <BLQ

Question: What about the “PTG-4997 (metabolite) concentration” value (sciatic nerve, 24 h postdose, individual animals) of the same compound?
Answer: <BLQ

Question: And the “AUC last in kidney, times lower than PTG-630 in kidneys” value (after PTG-630 PO)?
Answer: 3 times

Question: And the “detection in plasma following IV dosing” value (metabolite PTG-4997 after PTG-630 IV)?
Answer: only detected in the plasma of single animal

Question: And the presence in kidney (metabolite PTG-4997 after PTG-630 PO)?
Answer: present in steady level for 24 hours

Question: And the “presence in muscle samples” value (metabolite PTG-4997 after PTG-630 PO, 4-6 hours postdose)?
Answer: intermittently present

Question: And the “detection in plasma following PO administration” value (metabolite PTG-4997 after PTG-630 PO, any timepoint)?
Answer: not detectable

Question: What about the “presence in liver samples” value (metabolite PTG-4997 after PTG-630 PO, any timepoint through 24 hours postdose) of the same compound?
Answer: undetectable

Question: What about the “average amount recovered from each animal” value (urine, 24 hours, after PTG-630 IV) of the same compound?
Answer: 146 ng

Question: What about the “excretion rate, times lower than PTG-630” value (urine, after PTG-630 IV) of the same compound?
Answer: 34 times
